The nature of assay [1]: Ionophoric activity across egg-yolk L-alpha-phosphatidylcholine-based liposomal membrane assessed as induction of pH discharge in membrane by measuring initial rate constant after 21 mins by Hill plot analysis.
Assay [2] can be described thus: Ionophoric activity across egg-yolk L-alpha-phosphatidylcholine-based liposomal membrane assessed as induction of pH discharge in membrane after 21 mins by pyramine dye-based fluorescence assay.
The nature of assay [3]: Ionophoric activity across egg-yolk L-alpha-phosphatidylcholine-based liposomal membrane assessed as induction of pH discharge in membrane at 3 mol% after 20 mins by pyramine dye-based fluorescence assay in presence of NaBr.
Assay [4] is described as follows: Ionophoric activity across egg-yolk L-alpha-phosphatidylcholine-based liposomal membrane assessed as chloride efflux after 5 mins.
A short description of assay [5]: Ionophoric activity across egg-yolk L-alpha-phosphatidylcholine-based liposomal membrane dispersed in HEPES buffer containing Na2SO4 assessed as chloride efflux at 3 mol% after 5 mins.
Assay [6] is described as follows: Ionophoric activity across egg-yolk L-alpha-phosphatidylcholine-based liposomal membrane assessed as induction of pH discharge in membrane at 3 mol% after 20 mins by pyramine dye-based fluorescence assay in presence of RbCl.
A short description of assay [7]: Ionophoric activity across egg-yolk L-alpha-phosphatidylcholine-based liposomal membrane assessed as induction of pH discharge in membrane at 3 mol% after 20 mins by pyramine dye-based fluorescence assay in presence of CsCl.
The nature of assay [8]: Ionophoric activity across egg-yolk L-alpha-phosphatidylcholine-based liposomal membrane assessed as induction of pH discharge in membrane at 1 to 5 mol% after 21 mins by pyramine dye-based fluorescence assay.
Assay [9] can be described thus: Ionophoric activity across egg-yolk L-alpha-phosphatidylcholine-based liposomal membrane assessed as induction of pH discharge in membrane at 3 mol% after 20 mins by pyramine dye-based fluorescence assay in presence of NaI.
A short description of assay [10]: Ionophoric activity across egg-yolk L-alpha-phosphatidylcholine-based liposomal membrane assessed as induction of pH discharge in membrane at 3 mol% after 20 mins by pyramine dye-based fluorescence assay in presence of NaNO3.
Assay [11] can be described thus: Ionophoric activity across egg-yolk L-alpha-phosphatidylcholine-based liposomal membrane assessed as induction of pH discharge in membrane at 3 mol% after 20 mins by pyramine dye-based fluorescence assay in presence of NaCl.
Assay [12] can be described thus: Ionophoric activity across egg-yolk L-alpha-phosphatidylcholine-based liposomal membrane assessed as induction of pH discharge in membrane at 3 mol% after 20 mins by pyramine dye-based fluorescence assay in presence of KCl.
A short description of assay [13]: Ionophoric activity across egg-yolk L-alpha-phosphatidylcholine-based liposomal membrane assessed as induction of pH discharge in membrane at 3 mol% after 20 mins by pyramine dye-based fluorescence assay in presence of LiCl.

Our source for the Kin, EC50 and Activity values is ChEMBL document CHEMBL3297717, “Synthesis and potent ionophoric activity of a squaramide-linked bis(choloyl) conjugate” (Bioorg Med Chem Lett, 2014).

Structures are written as SMILES. Calls of active or inactive are those of the source. The rule behind the calls is not given here.

Take `C[C@H](CCC(=O)NCc1ccc(CNC(=O)CC[C@@H](C)[C@H]2CC[C@H]3[C@@H]4[C@H](O)C[C@@H]5C[C@H](O)CC[C@]5(C)[C@H]4C[C@H](O)[C@]23C)cc1)[C@H]1CC[C@H]2[C@@H]3[C@H](O)C[C@@H]4C[C@H](O)CC[C@]4(C)[C@H]3C[C@H](O)[C@]12C`: the Kin in [1] turned out to be 2.23 ×10⁻² /min.

In the case of `C[C@H](CCC(=O)N[C@@H](CCCCN)C(=O)NCc1ccc(CNC(=O)[C@H](CCCCN)NC(=O)CC[C@@H](C)[C@H]2CC[C@H]3[C@@H]4[C@H](O)C[C@@H]5C[C@H](O)CC[C@]5(C)[C@H]4C[C@H](O)[C@]23C)cc1)[C@H]1CC[C@H]2[C@@H]3[C@H](O)C[C@@H]4C[C@H](O)CC[C@]4(C)[C@H]3C[C@H](O)[C@]12C`, the Kin in assay [1] amounted to 5.52 ×10⁻² /min.

For the molecule `C[C@H](CCC(=O)Nc1ccc(Nc2c(Nc3ccc(NC(=O)CC[C@@H](C)[C@H]4CC[C@H]5[C@@H]6[C@H](O)C[C@@H]7C[C@H](O)CC[C@]7(C)[C@H]6C[C@H](O)[C@]45C)cc3)c(=O)c2=O)cc1)[C@H]1CC[C@H]2[C@@H]3[C@H](O)C[C@@H]4C[C@H](O)CC[C@]4(C)[C@H]3C[C@H](O)[C@]12C`, in [2], the EC50 is listed as 3.82 mol%. Besides, the Kin in [1] was found to be 0.6 min⁻¹. For the same molecule, the outcome in assay [3], in [9] and in assay [10] was inactive. Moreover, in assay [4], the Activity result is “Dose-dependent effect”. Also, the result in [5], in [6], in assay [7], in assay [8], in assay [11] and in assay [12] was Active. For the same molecule, in [13], the result was Active.
